Patent US10912771B1, “Methods for the administration of certain VMAT2 inhibitors” (Neurocrine Biosciences, Inc., priority 2017, dated 2021)
Entries after “also recorded” stand apart in the source; their conditions may differ. Like-named read-outs stand apart in the source and are kept apart here.

Experiments:
[1] = Phase 1 open-label one-sequence crossover drug-interaction study: plasma pharmacokinetics of NBI-98854 and metabolites with and without rifampin; type: in vivo, human; conditions: for half-life: read-out: Mean t1/2 (converted)
Experimental: (§1) Subjects received a single dose of 80 mg valbenazine tosylate on Days 1 and 11 between 0800 and 1000 hours. In addition, subjects received 600 mg rifampin (300 mg×2 capsules) once daily on Days 5 (after collection of the 96-hour PK sample) through 14 between 0830 and 1030 hours. Subjects were required to fast overnight before receiving the study drugs (valbenazine tosylate and rifampin). Subjects were discharged from the study center on Day 15 (final study day or upon early termination) after all safety evaluations and study assessments had been completed.
Safety was assessed throughout the study.
NBI-98854 40 mg capsules were administered orally. The dose of NBI-98854 was based on ditosylate salt (dose expressed as free base). Subjects received a single dose of NBI-98854 80 mg (as two 40 mg capsules) twice during the study, on Days 1 and 11.
Rifampin 300 mg capsules were administered orally. Subjects received a single dose of rifampin 600 mg (as two 300 mg capsules) on Days 5 (after collection of the 96 hour NBI-98854 PK sample) through 14 between 0830 and 1030 hours.
The following plasma PK parameters were calculated only for NBI-98854: • Apparent systemic clearance after oral administration (CL/F) • Apparent volume of distribution during the terminal phase after oral administration (Vz/F)
The last significant figure was rounded up if the digit to the right of it was >5, and was rounded down if the digit to the right of it was […].
The last significant figure was rounded up if the digit to the right of it was ≥5, and was rounded down if the digit to the right of it was ≤4.
(§2) An analysis of variance (ANOVA) model was used to compare AUC0-∞ and Cmax for NBI-98854 administered with rifampin (“test”) versus AUC0-∞ and Cmax for NBI-98854 alone (“reference”). The PK parameters for metabolites of NBI-98854 and rifampin were also evaluated. Safety data were summarized using descriptive statistics.

[2] = biological target: T1, human VMAT1 transporter (Homo sapiens, UniProt P54219); assay: Uptake in cells expressing VMAT1; type: cell-based; conditions: TBZ, VBZ and metabolites at concentrations up to 10 μM
T1 construct: expressed in transfected cells
T1 sequence (P54219 1-525): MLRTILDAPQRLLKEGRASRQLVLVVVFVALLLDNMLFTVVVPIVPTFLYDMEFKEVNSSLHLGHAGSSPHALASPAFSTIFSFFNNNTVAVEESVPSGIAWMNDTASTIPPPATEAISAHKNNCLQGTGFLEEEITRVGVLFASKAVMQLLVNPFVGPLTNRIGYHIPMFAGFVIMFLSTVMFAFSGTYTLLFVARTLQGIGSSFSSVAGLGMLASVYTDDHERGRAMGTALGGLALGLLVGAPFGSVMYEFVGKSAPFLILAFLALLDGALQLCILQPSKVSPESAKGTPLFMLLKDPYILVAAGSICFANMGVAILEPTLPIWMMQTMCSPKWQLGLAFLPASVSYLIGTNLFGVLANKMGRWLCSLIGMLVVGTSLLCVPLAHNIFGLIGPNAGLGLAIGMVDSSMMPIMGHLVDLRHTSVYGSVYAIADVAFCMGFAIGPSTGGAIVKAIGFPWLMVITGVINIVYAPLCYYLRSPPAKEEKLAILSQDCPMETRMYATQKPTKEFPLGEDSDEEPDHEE

[3] = Ptosis, in vivo surrogate measure of pharmacological effect
[4] = Prolactin release, in vivo surrogate for dopaminergic modulation
[5] = test system: CYP enzymes; conditions: human
[6] = biological target: Serotonin 5-HT7 (Homo sapiens, UniProt P34969); assay: Cerep screen, Serotonin 5-HT7; conditions: 1 or 10 μM final concentration; n=2
Serotonin 5-HT7, sequence (P34969 whole entry): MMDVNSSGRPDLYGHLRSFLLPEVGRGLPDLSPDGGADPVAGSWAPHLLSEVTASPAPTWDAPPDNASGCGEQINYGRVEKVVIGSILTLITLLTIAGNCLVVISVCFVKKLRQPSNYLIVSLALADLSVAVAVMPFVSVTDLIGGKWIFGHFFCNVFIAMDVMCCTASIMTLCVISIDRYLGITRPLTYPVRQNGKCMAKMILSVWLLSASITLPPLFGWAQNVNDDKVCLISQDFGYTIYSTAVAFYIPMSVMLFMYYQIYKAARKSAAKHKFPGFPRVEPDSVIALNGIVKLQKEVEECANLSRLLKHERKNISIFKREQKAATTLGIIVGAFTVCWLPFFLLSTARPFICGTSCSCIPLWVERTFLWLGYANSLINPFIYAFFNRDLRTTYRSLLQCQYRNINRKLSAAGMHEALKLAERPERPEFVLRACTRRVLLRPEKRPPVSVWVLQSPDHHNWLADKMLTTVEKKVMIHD

[7] = biological target: T2, Serotonin 5-HT1A (Homo sapiens, UniProt P08908); assay: Cerep screen, Serotonin 5-HT1A; conditions: 1 or 10 μM final concentration; n=2
T2 sequence (P08908 1-422): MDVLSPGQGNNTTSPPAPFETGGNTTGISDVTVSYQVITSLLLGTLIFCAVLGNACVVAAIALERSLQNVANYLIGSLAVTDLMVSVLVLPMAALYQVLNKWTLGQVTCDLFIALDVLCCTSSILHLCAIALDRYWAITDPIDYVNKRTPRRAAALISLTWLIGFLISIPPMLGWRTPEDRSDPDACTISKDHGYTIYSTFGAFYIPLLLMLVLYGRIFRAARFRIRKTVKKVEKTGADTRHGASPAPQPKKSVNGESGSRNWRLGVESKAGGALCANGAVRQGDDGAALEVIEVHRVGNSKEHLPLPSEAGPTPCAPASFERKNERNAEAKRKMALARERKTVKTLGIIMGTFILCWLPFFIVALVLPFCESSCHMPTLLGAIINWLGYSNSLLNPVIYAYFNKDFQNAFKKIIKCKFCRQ

[8] = test system: more than 80 targets (GPCRs, cell-surface monoamine transporters, ion channels including HERG); assay: Cerep multi-target activity screen; conditions: receptors, monoamine transporters, and ion channels
[9] = Phase 1 drug-interaction study: safety, treatment-emergent adverse events; type: in vivo, human
Experimental: as §1, §2

[10] = biological target: T3, VMAT2 (Homo sapiens, UniProt Q05940); assay: Inhibition of [3H]-DHTBZ binding to human platelets
T3 construct: from tissue; host or cells: human platelets (homogenates)
T3 sequence (Q05940 whole entry): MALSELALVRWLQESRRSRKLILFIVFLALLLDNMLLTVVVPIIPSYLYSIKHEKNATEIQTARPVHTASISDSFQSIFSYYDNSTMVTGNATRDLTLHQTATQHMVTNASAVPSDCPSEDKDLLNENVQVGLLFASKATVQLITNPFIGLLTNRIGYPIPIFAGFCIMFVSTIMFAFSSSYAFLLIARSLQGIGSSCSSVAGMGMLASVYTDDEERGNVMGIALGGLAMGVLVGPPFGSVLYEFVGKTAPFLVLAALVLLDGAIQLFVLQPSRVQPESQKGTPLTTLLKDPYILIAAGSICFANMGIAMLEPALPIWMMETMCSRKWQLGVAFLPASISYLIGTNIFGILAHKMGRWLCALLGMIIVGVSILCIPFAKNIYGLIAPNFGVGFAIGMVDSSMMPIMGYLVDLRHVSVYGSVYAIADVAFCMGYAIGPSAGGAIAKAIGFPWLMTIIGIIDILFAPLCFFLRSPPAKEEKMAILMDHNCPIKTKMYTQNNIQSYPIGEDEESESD

[11] = biological target: Dopamine D1 (Homo sapiens, UniProt P21728); assay: Cerep screen, Dopamine D1; conditions: radioligand binding assays and broad panel screen
Dopamine D1, sequence (P21728 whole entry): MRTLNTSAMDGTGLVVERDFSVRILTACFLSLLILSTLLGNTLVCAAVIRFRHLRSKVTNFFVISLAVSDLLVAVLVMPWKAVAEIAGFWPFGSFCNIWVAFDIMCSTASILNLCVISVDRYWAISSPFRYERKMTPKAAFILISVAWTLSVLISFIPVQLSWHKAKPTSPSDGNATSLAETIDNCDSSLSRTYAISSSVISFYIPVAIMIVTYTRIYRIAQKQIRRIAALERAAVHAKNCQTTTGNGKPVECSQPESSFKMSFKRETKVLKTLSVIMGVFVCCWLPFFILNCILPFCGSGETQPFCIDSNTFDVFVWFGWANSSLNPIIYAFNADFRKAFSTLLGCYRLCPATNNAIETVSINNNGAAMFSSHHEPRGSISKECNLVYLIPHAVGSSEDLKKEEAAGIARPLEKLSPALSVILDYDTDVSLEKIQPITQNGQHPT

[12] = biological target: Dopamine D2(s) (Homo sapiens, UniProt P14416); assay: Cerep screen, Dopamine D2(s); conditions: radioligand binding assays and broad panel screen
Dopamine D2(s), sequence (P14416 1-414 isoform P14416-2): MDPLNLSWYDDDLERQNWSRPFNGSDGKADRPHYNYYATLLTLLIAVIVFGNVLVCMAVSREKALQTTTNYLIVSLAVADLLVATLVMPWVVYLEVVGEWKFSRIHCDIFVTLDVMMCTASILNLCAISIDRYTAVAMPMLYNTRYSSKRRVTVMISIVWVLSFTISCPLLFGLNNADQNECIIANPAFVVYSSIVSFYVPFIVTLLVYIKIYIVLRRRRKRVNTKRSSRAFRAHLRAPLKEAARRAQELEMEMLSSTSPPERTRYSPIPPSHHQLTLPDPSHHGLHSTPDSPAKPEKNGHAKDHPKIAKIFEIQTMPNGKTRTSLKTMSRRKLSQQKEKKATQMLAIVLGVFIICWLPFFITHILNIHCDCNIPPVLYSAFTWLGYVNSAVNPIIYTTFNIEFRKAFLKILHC

[13] = both sexes, human, oral, 80 mg, plasma analyte, NBI-98854 alone
[14] = both sexes, human, oral, plasma analyte, NBI-98854 administered with rifampin
[15] = both sexes, human, plasma, oral, 80 mg
[16] = plasma metabolite NBI-98782, NBI-98854 80 mg + rifampin 600 mg, N = 11, Mean (SD)
[17] = plasma metabolite NBI-98782, NBI-98854 80 mg alone, N = 11, Mean (SD)
[18] = both sexes, human, oral, plasma NBI-98854, NBI-98854 80 mg + rifampin 600 mg, N = 11, Mean (SD)
[19] = both sexes, human, oral, plasma NBI-98854, NBI-98854 80 mg alone, N = 11, Mean (SD)
[20] = plasma analyte, NBI-98854 plus rifampin compared with NBI-98854 alone
[21] = Safety Analysis Set, healthy subjects, by treatment period

COc1cc2c(cc1OC)[C@H]1C[C@@H](O)[C@H](CC(C)C)CN1CC2 [NBI-98782, (2R, 3R,11bR)-3-isobutyl-9,10-dimethoxy-1,3,4,6,7,11b-hexahydro-2H-pyrido[2,1-a]isoquinolin-2-ol]
half-life [1, 13]: 19 h | Tmax ([1]; both sexes, human, oral, 80 mg, plasma analyte, NBI-98854 alone, read-out: Median tmax): 4 h | half-life [1, 14]: 12 h | Tmax ([1]; both sexes, human, oral, plasma analyte, NBI-98854 plus rifampin, read-out: Median tmax): 3 h | AUC(0-inf) [1, 15]: 689 ng·h/mL | Cmax [1, 15]: 21.5 ng/mL | MRT [1, 15]: 28 h | AUC(0-t) ([1]; both sexes, human, plasma, oral, 80 mg, plasma metabolite NBI-98782, NBI-98854 80 mg alone, N = 11, Mean (SD), read-out: AUC0-24): 364 ng·h/mL | AUC(0-t) ([1]; both sexes, human, plasma, oral, 80 mg, plasma metabolite NBI-98782, NBI-98854 80 mg alone, N = 11, Mean (SD), read-out: AUC0-tlast): 665 ng·h/mL | AUC(0-t) ([1]; both sexes, human, plasma, oral, plasma metabolite NBI-98782, NBI-98854 80 mg + rifampin 600 mg, N = 11, Mean (SD), read-out: AUC0-24): 115 ng·h/mL | AUC(0-t) ([1]; both sexes, human, plasma, oral, plasma metabolite NBI-98782, NBI-98854 80 mg + rifampin 600 mg, N = 11, Mean (SD), read-out: AUC0-tlast): 153 ng·h/mL | Tlag [1, 16]: 0.23 (0.075) hr | t1/2 [1, 16]: 12 (1.7) hr | Tmax ([1]; plasma metabolite NBI-98782, NBI-98854 80 mg + rifampin 600 mg, N = 11, Median (min, max)): 3.0 (0.50, 4.0) hr | Tlag [1, 17]: 0.25 (0.16) hr | t1/2 [1, 17]: 19 (2.3) hr | Tmax ([1]; plasma metabolite NBI-98782, NBI-98854 80 mg alone, N = 11, Median (min, max)): 4.0 (0.52, 18) hr | inhibition of uptake through VMAT1 ([2]; listed as R,R,R-DHTBZ): no significant inhibitory activity; also recorded: no significant effect | induction of ptosis [3]: induced ptosis in an equivalent manner | increase in serum prolactin levels [4]: induced a similar increase in serum prolactin levels as TBZ | enzymes involved in oxidative metabolism [5]: mediated primarily by CYP2D6 with contribution from CYP3A4/5 | percent of control specific binding, Serotonin 5-HT7 [6]: 3% | percent of control specific binding, Serotonin 5-HT1A [7]: 17% | affinity for more than 80 binding sites [8]: little to no affinity

COc1cc2c(cc1OC)[C@H]1C[C@@H](OC(=O)[C@@H](N)C(C)C)[C@H](CC(C)C)CN1CC2 [NBI-98854, (S)-2-amino-3-methyl-butyric acid (2R, 3R,11bR)-3-isobutyl-9,10-dimethoxy-1,3,4,6,7,11b-hexahydro-2H-pyrido[2,1-a]isoquinolin-2-yl ester]
CL/F ([1]; NBI-98854 80 mg + rifampin 600 mg, N = 11, Mean (SD)): 50.3 (11.4) L/hr | CL/F ([1]; NBI-98854 80 mg alone, N = 11, Mean (SD)): 13.8 (2.77) L/hr | half-life [1, 13]: 16 h | AUC(0-inf) [1, 18]: 1700 ng·h/mL | Cmax [1, 18]: 542 ng/mL | MRT [1, 18]: 8.7 h | Tmax ([1]; both sexes, human, oral, plasma NBI-98854, NBI-98854 80 mg + rifampin 600 mg, N = 11, Median (mm, max), read-out: tmax): 0.75 h | AUC(0-inf) [1, 19]: 6020 ng·h/mL | Cmax [1, 19]: 795 ng/mL | MRT [1, 19]: 17 h | Tmax ([1]; both sexes, human, oral, plasma NBI-98854, NBI-98854 80 mg alone, N = 11, Median (mm, max), read-out: tmax): 0.75 h | half-life [1, 14]: 10 h | AUC(0-t) ([1]; both sexes, human, plasma, oral, 80 mg, plasma NBI-98854, NBI-98854 80 mg alone, N = 11, Mean (SD), read-out: AUC0-24): 4480 ng·h/mL | AUC(0-t) ([1]; both sexes, human, plasma, oral, 80 mg, plasma NBI-98854, NBI-98854 80 mg alone, N = 11, Mean (SD), read-out: AUC0-tlast): 5930 ng·h/mL | AUC(0-t) ([1]; both sexes, human, plasma, oral, plasma NBI-98854, NBI-98854 80 mg + rifampin 600 mg, N = 11, Mean (SD), read-out: AUC0-24): 1510 ng·h/mL | AUC(0-t) ([1]; both sexes, human, plasma, oral, plasma NBI-98854, NBI-98854 80 mg + rifampin 600 mg, N = 11, Mean (SD), read-out: AUC0-tlast): 1670 ng·h/mL | t1/2 ([1]; plasma NBI-98854, NBI-98854 80 mg + rifampin 600 mg, N = 11, Mean (SD)): 10 (2.1) hours | t1/2 ([1]; plasma NBI-98854, NBI-98854 80 mg alone, N = 11, Mean (SD)): 16 (2.3) hours | decrease in AUC0-∞ [1, 20]: ~70% | decrease in Cmax [1, 20]: ~30% | Tolerability ([9]; 80 mg in healthy subjects, alone or concomitantly with rifampin): well tolerated | Subjects who experienced a TEAE: Overall [9, 21]: 6 (50.0) n (%) | TEAE: Abdominal pain [9, 21]: 1 (8.3) n (%) | TEAE: Abdominal pain upper [9, 21]: 0 n (%) | TEAE: Arthropod bite [9, 21]: 1 (8.3) n (%) | TEAE: Chromaturia [9, 21]: 0 n (%) | TEAE: Headache [9, 21]: 3 (25.0) n (%) | TEAE: Hypoaesthesia [9, 21]: 0 n (%) | TEAE: Non-cardiac chest pain [9, 21]: 0 n (%) | TEAE: Paraesthesia [9, 21]: 0 n (%) | TEAE: Vessel puncture site haemorrhage [9, 21]: 1 (8.3) n (%) | Affinity Relative to R,R,R-DHTBZ [10]: 45 | pKi mean (SEM) ([10]; n=4): 6.82 (0.02) | inhibition of uptake through VMAT1 ([2]; listed as VBZ): no significant inhibitory activity; also recorded: no significant effect | induction of ptosis [3]: induced ptosis in an equivalent manner | enzymes involved in oxidative metabolism [5]: CYP3A4/5 is the major enzyme | percent of control specific binding, Serotonin 5-HT7 [6]: 4% | percent of control specific binding, Serotonin 5-HT1A [7]: 26% | affinity for more than 80 binding sites [8]: little to no affinity

COc1cc2c(cc1OC)[C@@H]1C[C@@H](O)[C@@H](CC(C)C)CN1CC2 [R,S,S-DHTBZ]
interaction with D1 receptors [11]: interact with D1 and D2 receptors | interaction with D2 receptors [12]: interact with D1 and D2 receptors

COc1cc2c(cc1OC)[C@@H]1C[C@H](O)[C@@H](CC(C)C)CN1CC2 [S,S,S-DHTBZ]
interaction with D1 receptors [11]: interact with D1 and D2 receptors | interaction with D2 receptors [12]: interact with D1 and D2 receptors
